Measured values from patent US20230250096A1, “SUBSTITUTED PHENYL-1H-PYRROLO[2,3-c] PYRIDINE DERIVATIVES” (Janssen Pharmaceutica NV, priority 2021, published 2023).

Legend:
[1] = target: T1, menin/MLL (terbium chelate-labeled menin, FITC-MBM1 peptide) (Homo sapiens, UniProt O00255, T541A); assay: Menin/MLL homogenous time-resolved fluorescence (HTRF) assay; format: binding; settings: 30 min incubation
T1 construct: Menin (a.a 1-610-6xhis tag, 2.3 mg/mL in 20 mM Hepes)
T1 sequence (O00255 with tags, fused parts or gaps T541A): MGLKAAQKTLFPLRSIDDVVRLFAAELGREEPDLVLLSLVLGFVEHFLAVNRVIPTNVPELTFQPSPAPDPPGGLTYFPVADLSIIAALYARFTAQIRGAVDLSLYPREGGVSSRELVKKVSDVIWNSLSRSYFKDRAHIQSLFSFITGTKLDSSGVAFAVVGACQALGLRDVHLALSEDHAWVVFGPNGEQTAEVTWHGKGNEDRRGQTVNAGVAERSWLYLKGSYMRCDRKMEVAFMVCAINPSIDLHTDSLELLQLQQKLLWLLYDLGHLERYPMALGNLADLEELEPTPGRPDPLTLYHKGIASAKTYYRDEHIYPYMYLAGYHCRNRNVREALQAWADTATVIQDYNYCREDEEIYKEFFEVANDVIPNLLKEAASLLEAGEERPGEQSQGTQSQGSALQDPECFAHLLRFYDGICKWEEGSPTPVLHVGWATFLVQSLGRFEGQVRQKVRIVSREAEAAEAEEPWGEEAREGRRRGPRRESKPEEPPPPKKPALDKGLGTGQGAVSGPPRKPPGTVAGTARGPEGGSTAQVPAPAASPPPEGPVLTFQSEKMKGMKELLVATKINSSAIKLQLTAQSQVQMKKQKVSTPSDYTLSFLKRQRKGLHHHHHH
In short: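 Competition binding read by time-resolved FRET (FITC 520 nm over terbium 490 nm) after compound meets labeled menin 1-610-His […] for 30 min, then FITC-MBM1 (75 nM) for 15 min, ambient temperature, 0.5% DMSO. Eleven-point four-fold dilutions, usually starting at 10 μM, fitted to four-parameter curves for IC50.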

MEIS1 mRNA expression = MEIS1 mRNA expression assay (Quantigene Singleplex) in MOLM14 cells; format: cell-based, human; settings: 48 hours incubation
In short: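 Read-out: MEIS1 transcript counts, background-subtracted and divided by RPL28, expressed as fold change over DMSO-treated cells, then dose-response modelled for IC50. MOLM14 cells (3,750/well) received graded compound for 48 h before lysis and QuantiGene hybridization at 55 °C.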

Compound	IC50 [1]	IC50 (MEIS1 mRNA expression)	IC50 (MEIS1 mRNA expression; Homo sapiens, MOLM-14, 48 h)
CC(=O)N1CCC(CN2CCC(Cc3cn(-c4ccc(F)cc4C(=O)N(C)C(C)C)c4cncc(C)c34)C2C)CC1 (stereo not shown) [Compound 229]	0.235 nM	93 nM	
CC(=O)N1CCC([C@H](C)N2CC(Cc3cn(-c4ccc(F)cc4C(=O)N(C)C(C)C)c4cncc(C)c34)C2)CC1 (single isomer, unassigned) [Compound 151]	3.77 nM		1350 nM
CCN(C(=O)c1cc(F)ccc1-n1cc(CC2CN(C(C(C)C)[C@H]3C[C@H](N4CCN(S(C)(=O)=O)CC4)C3)C2)c2c(C)cncc21)C(C)C (stereo partly shown) [Compound 37b]	0.237 nM		28 nM
CC(=O)N1CCC([C@H](C)N2CC[C@@H](Cc3cn(-c4ccc(F)cc4[S@@](=N)(=O)C(C)C)c4cncc(C)c34)C2)CC1 (single isomer, unassigned) [Compound 231b]	6.94 nM		> 1000 nM
Cc1cncc2c1c(C[C@@H]1CCN([C@@H](CCO)C3CCOCC3)C1)cn2-c1ccc(F)cc1C(=O)N(C)C(C)C (single isomer, unassigned) [Compound 253b]	1.73 nM		> 1000 nM
CC(=O)N1CCC(CN2CC[C@@H](Cc3cn(-c4ccc(F)cc4C(=O)N(C(C)C)C(C)C)c4cncc(C)c34)C2)CC1 [Compound 258]	0.021 nM		11 nM
Cc1cncc2c1c(C[C@@H]1CCN([C@@H](C)C3CCOCC3)C1)cn2-c1ccc(F)cc1[S@@](=N)(=O)C(C)C (single isomer, unassigned) [Compound 182b]	3.1 nM		1770 nM
Cc1cncc2c1c(CC1CN(CC3CCOCC3)C1)cn2-c1ccc(F)cc1C(=O)N1C2COCC1C2 [Compound 263]	0.258 nM		175 nM
Cc1cncc2c1c(CC1CN(C[C@H]3CC[C@H](NS(C)(=O)=O)CC3)C1)cn2-c1ccc(F)cc1C(=O)N(C)C(C)C [Compound 115]	0.021 nM		11 nM
CC(=O)N1C[C@@H]2CN(CCC[C@@H](C(C)C)N3CC[C@H](Cc4cn(-c5ccc(F)cc5C(=O)N(C)C(C)C)c5cncc(Cl)c45)C3)C[C@H]2C1 (single isomer, unassigned) [Compound 19b]	0.065 nM		128 nM
CC(=O)NCC(C1CCN(C(C)=O)CC1)N1CC[C@@H](Cc2cn(-c3ccc(F)cc3C(=O)N(C)C(C)C)c3cncc(C)c23)C1 (mixture of isomers) [Compound 225]	0.637 nM		340 nM
CC(=O)N1CCC(CN2CC[C@@H](Cc3cn(-c4ccc(F)cc4C(=O)N4CCCCC4C)c4cncc(C)c34)C2)CC1 (stereo partly shown) [Compound 317]	0.291 nM		65 nM
Cc1cncc2c1c(CC1(C)CCN(CC3CCOCC3)C1)cn2-c1ccc(F)cc1C(=O)N(C)C(C)C (stereo not shown) [Compound 239]	0.305 nM		138 nM
COCCNCCCC(C(C)C)N1CC[C@@H](Cc2cn(-c3ccc(F)cc3C(=O)N(C)C(C)C)c3cncc(C)c23)C1 (mixture of isomers) [Compound 14]	0.054 nM		< 3.6 nM
Cc1cncc2c1c(CC1CCN(C[C@@H]3CCC(=O)N3)CC1)cn2-c1ccc(F)cc1C(=O)N(C)C(C)C [Compound 105]	0.728 nM		> 1000 nM
Cc1cncc2c1c(C[C@@H]1CCN(CC3CCOCC3)C1)cn2-c1ccc(F)cc1[S@](=N)(=O)C(C)C (single isomer, unassigned) [Compound 78b]	0.552 nM	361 nM	
CC(=O)N1C[C@@H]2[C@@H](CN3CC[C@@H](Cc4cn(-c5ccc(F)cc5C(=O)N(C)C(C)C)c5cncc(C)c45)C3)[C@@H]2C1 [Compound 187]	1.02 nM		1940 nM
CC(=O)N1CCC(CN2C[C@@H](Cc3cn(-c4ccc(F)cc4C(=O)N(C)C(C)C)c4cncc(C)c34)C[C@H]2C)CC1 [Compound 131]	0.132 nM		129 nM
Cc1ccc(CN2CC(Cc3cn(-c4ccc(F)cc4C(=O)N(C)C(C)C)c4cncc(C)c34)C2)nn1 [Compound 284]	4.19 nM		~2360 nM
CC(=O)N1CCN([C@H]2C[C@@H]([C@H](C(C)C)N3CC(Cc4cn(-c5ccc(F)cc5C(=O)N(C)C(C)C)c5cncc(C)c45)C3)C2)CC1 (single isomer, unassigned) [Compound 32b]	0.472 nM		> 1000 nM
Cc1cncc2c1c(C[C@@H]1CCN(C(C)C3CCOCC3)C1)cn2-c1ccc(F)cc1C(=O)N(C)C(C)C (mixture of isomers) [Compound 48]	0.06 nM		20 nM

Compound	IC50 [1]	IC50 (MEIS1 mRNA expression)	IC50 (MEIS1 mRNA expression; Homo sapiens, MOLM-14, 48 h)
Cc1cncc2c1c(CC1CNC(CC3CCOCC3)C1)cn2-c1ccc(F)cc1C(=O)N(C)C(C)C (single isomer, unassigned) [Compound 134b]	0.988 nM	> 1000 nM	
CC(=O)N1CCC([C@@H](C)N2CC[C@@H](Cc3cn(-c4ccc(F)cc4[S@](=N)(=O)C(C)C)c4cncc(C)c34)C2)CC1 (single isomer, unassigned) [Compound 230a]	0.053 nM		77 nM
Cc1cncc2c1c(C[C@@H]1CCN(C[C@H]3CC[C@H](C(=O)N4CCC4)CC3)C1)cn2-c1ccc(F)cc1C(=O)N(C)C(C)C [Compound 179]	0.405 nM		259 nM
Cc1cncc2c1c(CC1CCN(CC3CCN(C(=O)CC4CS(=O)(=O)C4)CC3)C1)cn2-c1ccc(F)cc1C(=O)N(C)C(C)C (single isomer, unassigned) [Compound 106]	0.039 nM		104 nM
CC(=O)N1CCC([C@H](C)N2CC[C@H](Cc3cn(-c4ccc(F)cc4[S@](=N)(=O)C(C)C)c4cncc(C)c34)C2)CC1 (single isomer, unassigned) [Compound 232b]	4.04 nM		> 1000 nM
CC(=O)N1CC2CC(CN3CC[C@@H](Cc4cn(-c5ccc(F)cc5C(=O)N5CCC[C@H]5CO)c5cncc(C)c45)C3)CC(C2)C1 (stereo partly shown) [Compound 349]	6.68 nM		> 1000 nM
Cc1cncc2c1c(C[C@@H]1CCN(C(CCCN3CCC(S(C)(=O)=O)CC3)C(C)C)C1)cn2-c1ccc(F)cc1C(=O)N(C)C(C)C (mixture of isomers) [Compound 10]	0.021 nM		17 nM
Cc1cncc2c1c(CC1CN([C@@H](C)C3CCS(=O)(=O)CC3)C1)cn2-c1ccc(F)cc1C(=O)N(C)C(C)C (single isomer, unassigned) [Compound 213b]	1.63 nM		~2300 nM
CC(=O)N1CCC[C@H](CN2CC(Cc3cn(-c4ccc(F)cc4C(=O)N(C)C(C)C)c4cncc(C)c34)C2)C1 (single isomer, unassigned) [Compound 90a]	0.391 nM		~127 nM
CC(=O)N1CCC(CN2CC[C@@H](Cc3cn(-c4ccc(F)cc4C(=O)NC(C)C)c4cncc(C)c34)C2)CC1 [Compound 238]	1.94 nM		> 1000 nM
Cc1cncc2c1c(CC1CN(CC3CCOCC3)C1)cn2-c1ccc(F)cc1C(=O)N1CCCCC1C (stereo not shown) [Compound 280]	0.077 nM		51 nM
Cc1cncc2c1c(CC1CN(CC3CCOCC3)C1)cn2-c1ccc(F)cc1C(=O)N(C)C1CC1 [Compound 265]	0.097 nM		46 nM
COC[C@@H](C1CCCCO1)N1CC[C@@H](Cc2cn(-c3ccc(F)cc3C(=O)N(C)C(C)C)c3cncc(C)c23)C1 (single isomer, unassigned) [Compound 165a]	0.173 nM		~180 nM
CC(=O)N1CCC(CN2CC[C@H](Cc3cn(-c4ccc(F)cc4[S@@]4(=O)=NCCC4)c4cncc(C)c34)C2)CC1 (single isomer, unassigned) [Compound 224a]	30.7 nM		> 1000 nM
CC(=O)N1C[C@@H]2CN([C@H]3C[C@@H](C(C)N4CC[C@@H](Cc5cn(-c6ccc(F)cc6C(=O)N(C)C(C)C)c6cncc(C)c56)C4)C3)C[C@H]2C1 (mixture of isomers) [Compound 28]	0.055 nM		107 nM
CCc1cncc2c1c(C[C@@H]1CCN(CC3CCN(C(C)=O)CC3)C1)cn2-c1ccc(F)cc1C(=O)N(C)C(C)C [Compound 259]	0.031 nM		138 nM
Cc1cncc2c1c(C[C@@H]1CCN(CC3CCN(C(=O)NC4CC4)CC3)C1)cn2-c1ccc(F)cc1C(=O)N(C)C(C)C [Compound 152]	0.053 nM		197 nM
CC(=O)N1C[C@@H]2[C@H](CN3CC[C@@H](Cc4cn(-c5ccc(F)cc5C(=O)N(C)C(C)C)c5cncc(C)c45)C3)[C@@H]2C1 [Compound 220]	0.932 nM		> 1000 nM
CC(=O)N1CCC(CN2CCC(Cc3cn(-c4ccc(F)cc4S(=O)(=O)C(C)C)c4cncc(C)c34)C2)CC1 (stereo not shown) [Compound 93]	0.418 nM		~360 nM
CC(=O)N1CC2(CC(CN3CCC(Cc4cn(-c5ccc(F)cc5C(=O)N(C)C(C)C)c5cncc(C)c45)C3)C2)C1 (stereo not shown) [Compound 107]	0.188 nM		226 nM
